Here are results for 15 compounds from patent publication US20240018118A1, “TRICYCLIC COMPOUNDS TO DEGRADE NEOSUBSTRATES FOR MEDICAL THERAPY” (C 4 Therapeutics, Inc., priority 2020, published 2024).

Like-named read-outs stand apart in the source and are kept apart here.

By DC50 is commonly meant the concentration giving 50% degradation. For orientation: Emax means the greatest response seen or fitted, relative to the assay's reference. What is called IC50 is the midpoint of a concentration-inhibition curve. High values mean lower potency, low ones higher potency.

The target in one test is GSPT1 (Homo sapiens, UniProt P15170+Q96SW2). Briefly: HiBiT degradation assay, 293T.114 cells, GSPT1. It counts as cell-based. How it is done:
GSPT1 degradation was determined based on quantification of luminescent signal using Nano-Glo® HiBiT Lytic Assay kit. Test compounds were added to the 384-well plate from a top concentration of 10 μM with 5 points, 3-fold titration in quadruplicates. 293T.114 cells were added into 384-well plates at a cell density of 6000 cells per well. […] The cells treated in the absence of the test compound were the negative control and the cells without Nano-Glo® HiBiT Lytic reagent were the positive control. […] Luminescence was acquired on EnVision™ Multilabel Reader (PerkinElmer, Santa Clara, CA, USA).
For orientation: With HiBiT, luminescence reflects the tagged protein that the partner subunit can reach.

Another test concerns the target SALL4 (Homo sapiens, UniProt Q96SW2+Q9UJQ4). Briefly: HiBiT degradation assay, KELLY.2 (SALL4-HiBiT) cells. Conditions: for DC50: KELLY.2 cells, 6 hours; for Emax: read-out: HiBiT-Degradation KELLY.2 SALL4 6 hours Emax, KELLY.2 cells. Type of test: cell-based. On the procedure: RPMI 1640 Medium without phenol red, fetal bovine serum (FBS), and Sodium Pyruvate (100 mM) were purchased from Gibco (Grand Island, NY, USA). Nano-Glo® HiBiT Lytic Assay System was purchased from Promega (Madison, WI, USA). […] Cell culture flasks and 384-well microplates were acquired from VWR (Radnor, PA, USA).
SALL4 degradation was determined based on quantification of luminescent signal using Nano-Glo® HiBiT Lytic Assay kit. Test compounds were added to the 384-well plate from a top concentration of 10 μM with 11 points, half log titration in duplicates. KELLY.2 cells were added into 384-well plates at a cell density of 6000 cells per well. The plates were kept at 37° C. with 5% CO2 for 6 hours. The cells treated in the absence of the test compound were the negative control and the cells without Nano-Glo® HiBiT Lytic reagent were the positive control. After 6-hour incubation, Nano-Glo® HiBiT Lytic Assay reagents were added to the cells. Luminescence was acquired on EnVision™ Multilabel Reader (PerkinElmer, Santa Clara, CA, USA).

The target in the next test is T1, IKZF1 (Homo sapiens, UniProt Q13422+Q96SW2).
T1 construct: endogenously expressing IKZF1 with HiBiT fusion tag via CRISPR; endogenous in cells; host or cells: NCIH929.11 (CRISPR knock-in)
Briefly: HiBiT degradation assay, NCIH929.11 (HiBiT-IKZF1) cells. Type of test: cell-based. Conditions: for DC50: NCHI929.11 cells, 6 hours; for Emax: read-out: HiBiT-Degradation NCHI929.11 IKZF1 6 hours Emax, NCHI929.11 cells. How it is done: RPMI no-phenol red medium and fetal bovine serum (FBS) were purchased from Gibco (Grand Island, NY, USA). Nano-Glo® HiBiT Lytic Assay System was purchased from Promega (Madison, WI, USA). NCIH929.11 (HiBiT-IKZF1) cell line was generated in house, endogenously expressing IKZF1 with HiBiT fusion tag via CRISPR. Cell culture flasks and 384-well microplates were acquired from VWR (Radnor, PA, USA).
IKZF 1 degradation was determined based on quantification of luminescent signal using Nano-Glo® HiBiT Lytic Assay kit. Test compounds were added to the 384-well plate from a top concentration of 10 μM with 11 points, half-log titration in duplicates. NCIH929.11 cells expressing HiBiT-tagged TKZF1 were added into 384-well plates in RPMI medium containing 10% FBS and 0.05 mM 2-mercaptoethanol at a cell density of 15000 cells per well. The plates were kept at 37° C. with […] for 6 hours. Cells treated in the absence of the test compound were the negative control and wells containing media only were the positive control. After 6-hour incubation, Nano-Glo® HiBiT Lytic Assay reagents were added to the designated wells. Luminescence was acquired on EnVision™ Multilabel Reader (PerkinElmer, Santa Clara, CA, USA).

For the next test, the target named is T2, CRBN (Homo sapiens, UniProt Q96SW2).
T2 construct: expressed in transfected cells; host or cells: 293T (line named 293T.116)
Briefly: NanoBRET CRBN binding, 293T.116 cells. Conditions: 2 hours.

Another test concerns the target IKZF2 (Homo sapiens, UniProt Q96SW2+Q9UKS7). Conditions: cited from earlier work.
For a further test, the target named is IKZF4 (Homo sapiens, UniProt Q96SW2+Q9H2S9). Conditions: cited from earlier work.
Where [1] appears, read: 293T.114 cells, 6 hours, read-out: HiBiT-Degradation 293T.114 GSPT1 6 hours DC50.
Where [2] appears, read: read-out: GSPT1 Emax @ 10 μM 24 Hours, 24 hours.
The mark [3] stands for this setting: read-out: HiBiT-Degradation 293T.114 GSPT1 6 hours Emax, 293T.114 cells, 6 hours.
[4] abbreviates: 293T.114 cells, 24 hours, read-out: HiBiT-Degradation 293T.114 GSPT1 24 hours DC50.
Where [5] appears, read: 293T.114 cells, 24 hours, read-out: HiBiT-Degradation 293T.114 GSPT1 24 hours Emax.
Setting [6] is: 293T.114 cells, 48 hours, read-out: HiBiT-Degradation 293T.114 GSPT1 48 hours DC50.
The mark [7] stands for this setting: 293T.114 cells, 48 hours, read-out: HiBiT-Degradation 293T.114 GSPT1 48 hours Emax.

Sequence of GSPT1 (P15170 whole entry): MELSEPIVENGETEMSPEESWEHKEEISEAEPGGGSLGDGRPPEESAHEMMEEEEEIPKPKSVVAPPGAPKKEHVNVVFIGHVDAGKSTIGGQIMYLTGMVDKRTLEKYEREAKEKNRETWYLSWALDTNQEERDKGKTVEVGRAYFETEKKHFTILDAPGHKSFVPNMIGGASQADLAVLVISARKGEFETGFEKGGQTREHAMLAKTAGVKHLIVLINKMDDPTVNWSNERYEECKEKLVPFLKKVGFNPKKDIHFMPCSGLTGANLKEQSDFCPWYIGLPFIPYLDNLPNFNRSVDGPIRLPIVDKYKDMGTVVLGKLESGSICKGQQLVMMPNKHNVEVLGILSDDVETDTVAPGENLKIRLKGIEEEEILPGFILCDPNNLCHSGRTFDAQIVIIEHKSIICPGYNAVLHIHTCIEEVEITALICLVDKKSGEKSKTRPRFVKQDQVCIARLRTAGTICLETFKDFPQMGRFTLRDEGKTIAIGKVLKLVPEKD
Sequence of GSPT1 (Q96SW2 whole entry): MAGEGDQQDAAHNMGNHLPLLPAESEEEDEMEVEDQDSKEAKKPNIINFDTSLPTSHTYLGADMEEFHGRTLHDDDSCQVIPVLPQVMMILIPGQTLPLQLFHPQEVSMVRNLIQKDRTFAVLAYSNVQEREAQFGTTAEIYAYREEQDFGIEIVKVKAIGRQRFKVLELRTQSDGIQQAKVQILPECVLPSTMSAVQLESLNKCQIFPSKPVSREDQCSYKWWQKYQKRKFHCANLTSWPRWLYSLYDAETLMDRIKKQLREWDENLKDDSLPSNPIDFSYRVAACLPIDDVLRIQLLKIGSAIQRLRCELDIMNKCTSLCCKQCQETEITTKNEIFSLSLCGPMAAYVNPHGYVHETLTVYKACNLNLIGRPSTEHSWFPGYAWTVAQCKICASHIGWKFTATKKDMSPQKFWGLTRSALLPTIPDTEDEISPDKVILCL
Sequence of GSPT1 (Q16531 2-1140 partner limits assumed): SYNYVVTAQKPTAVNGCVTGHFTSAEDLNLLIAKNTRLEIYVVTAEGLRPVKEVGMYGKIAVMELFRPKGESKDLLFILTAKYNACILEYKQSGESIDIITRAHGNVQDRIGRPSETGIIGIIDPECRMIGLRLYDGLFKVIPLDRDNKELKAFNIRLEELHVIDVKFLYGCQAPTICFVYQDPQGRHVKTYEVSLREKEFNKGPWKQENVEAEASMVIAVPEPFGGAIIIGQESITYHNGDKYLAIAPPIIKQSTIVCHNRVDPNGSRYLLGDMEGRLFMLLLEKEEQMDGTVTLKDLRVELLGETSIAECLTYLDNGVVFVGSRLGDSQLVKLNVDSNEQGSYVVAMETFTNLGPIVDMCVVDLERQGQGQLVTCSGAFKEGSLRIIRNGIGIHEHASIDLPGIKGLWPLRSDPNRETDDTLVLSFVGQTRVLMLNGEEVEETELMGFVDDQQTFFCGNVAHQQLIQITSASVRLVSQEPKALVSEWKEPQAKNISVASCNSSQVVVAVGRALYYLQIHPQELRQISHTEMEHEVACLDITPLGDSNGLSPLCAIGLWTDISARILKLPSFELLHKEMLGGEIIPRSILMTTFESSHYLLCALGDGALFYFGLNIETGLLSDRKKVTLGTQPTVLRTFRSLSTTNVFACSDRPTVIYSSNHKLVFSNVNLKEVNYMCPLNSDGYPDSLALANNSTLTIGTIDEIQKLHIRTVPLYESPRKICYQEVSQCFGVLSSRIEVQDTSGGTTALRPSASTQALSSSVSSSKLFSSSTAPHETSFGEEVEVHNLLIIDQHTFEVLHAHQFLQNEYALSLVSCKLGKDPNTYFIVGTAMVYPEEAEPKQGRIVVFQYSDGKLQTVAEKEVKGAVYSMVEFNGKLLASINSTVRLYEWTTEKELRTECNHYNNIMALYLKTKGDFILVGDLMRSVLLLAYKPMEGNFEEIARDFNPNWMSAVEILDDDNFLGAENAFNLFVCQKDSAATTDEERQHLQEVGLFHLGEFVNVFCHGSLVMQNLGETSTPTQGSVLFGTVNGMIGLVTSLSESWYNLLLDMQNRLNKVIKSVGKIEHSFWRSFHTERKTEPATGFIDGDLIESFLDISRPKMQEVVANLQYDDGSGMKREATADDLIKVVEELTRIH
T1 sequence (Q13422 whole entry, the tested form may be a part): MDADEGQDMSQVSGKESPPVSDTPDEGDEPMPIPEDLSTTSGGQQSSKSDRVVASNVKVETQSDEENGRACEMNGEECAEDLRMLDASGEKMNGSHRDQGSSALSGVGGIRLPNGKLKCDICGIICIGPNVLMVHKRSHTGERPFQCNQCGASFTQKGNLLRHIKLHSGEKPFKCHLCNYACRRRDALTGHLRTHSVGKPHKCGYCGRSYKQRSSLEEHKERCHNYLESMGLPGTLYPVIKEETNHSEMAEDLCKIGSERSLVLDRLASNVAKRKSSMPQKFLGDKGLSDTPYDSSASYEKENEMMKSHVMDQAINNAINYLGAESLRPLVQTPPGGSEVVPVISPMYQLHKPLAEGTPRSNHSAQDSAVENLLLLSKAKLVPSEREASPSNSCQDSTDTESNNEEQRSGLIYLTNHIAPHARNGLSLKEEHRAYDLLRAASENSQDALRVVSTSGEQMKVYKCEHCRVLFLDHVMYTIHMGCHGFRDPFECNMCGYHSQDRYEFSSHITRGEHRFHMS
T1 sequence (Q96SW2 whole entry, the tested form may be a part): as the sequence (Q96SW2 whole entry) above
T1 sequence (Q16531 2-1140 partner limits assumed): as the sequence (Q16531 2-1140 partner limits assumed) above
Sequence of IKZF2 (Q9UKS7 whole entry): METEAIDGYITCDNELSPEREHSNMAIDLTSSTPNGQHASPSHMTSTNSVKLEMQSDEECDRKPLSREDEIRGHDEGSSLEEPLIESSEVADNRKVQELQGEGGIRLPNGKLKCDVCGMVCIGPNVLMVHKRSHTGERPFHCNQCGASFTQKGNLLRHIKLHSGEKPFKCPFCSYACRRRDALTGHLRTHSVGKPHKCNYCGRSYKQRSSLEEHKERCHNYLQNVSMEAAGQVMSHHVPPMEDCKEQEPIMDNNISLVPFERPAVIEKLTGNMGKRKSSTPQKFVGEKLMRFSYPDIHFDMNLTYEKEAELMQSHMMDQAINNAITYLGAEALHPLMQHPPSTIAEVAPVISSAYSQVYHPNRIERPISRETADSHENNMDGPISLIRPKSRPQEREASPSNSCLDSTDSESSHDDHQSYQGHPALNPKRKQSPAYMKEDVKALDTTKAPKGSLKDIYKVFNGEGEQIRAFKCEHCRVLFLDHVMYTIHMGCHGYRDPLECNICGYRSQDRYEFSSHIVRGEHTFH
Sequence of IKZF2 (Q96SW2 whole entry): as the sequence (Q96SW2 whole entry) above
Sequence of IKZF2 (Q16531 2-1140 partner limits assumed): as the sequence (Q16531 2-1140 partner limits assumed) above
Sequence of IKZF4 (Q9H2S9 whole entry): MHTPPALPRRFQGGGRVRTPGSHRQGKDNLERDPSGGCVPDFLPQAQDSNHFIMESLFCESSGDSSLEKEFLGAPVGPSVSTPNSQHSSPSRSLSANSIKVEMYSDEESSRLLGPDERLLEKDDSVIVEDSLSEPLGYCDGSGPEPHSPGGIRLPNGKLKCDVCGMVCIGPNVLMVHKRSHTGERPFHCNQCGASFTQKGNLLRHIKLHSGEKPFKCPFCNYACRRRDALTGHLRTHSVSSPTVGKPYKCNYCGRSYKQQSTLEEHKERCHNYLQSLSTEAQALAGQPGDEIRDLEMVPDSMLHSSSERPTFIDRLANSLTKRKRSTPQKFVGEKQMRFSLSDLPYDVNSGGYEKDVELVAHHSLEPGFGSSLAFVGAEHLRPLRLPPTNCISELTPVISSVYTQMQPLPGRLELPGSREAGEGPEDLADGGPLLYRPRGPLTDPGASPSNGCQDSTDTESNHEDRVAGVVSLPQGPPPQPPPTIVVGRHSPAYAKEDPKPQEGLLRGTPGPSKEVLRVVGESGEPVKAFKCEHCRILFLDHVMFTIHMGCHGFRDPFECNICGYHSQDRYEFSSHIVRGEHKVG
Sequence of IKZF4 (Q96SW2 whole entry): as the sequence (Q96SW2 whole entry) above
Sequence of IKZF4 (Q16531 2-1140 partner limits assumed): as the sequence (Q16531 2-1140 partner limits assumed) above
T2 sequence (Q96SW2 whole entry): as the sequence (Q96SW2 whole entry) above
T2 sequence (Q16531 2-1140 partner limits assumed): as the sequence (Q16531 2-1140 partner limits assumed) above

With `CCOC(=O)c1ccc(Cc2ccc3c4c(cccc24)N(C2CCC(=O)NC2=O)C3=O)cc1` (stereo not drawn) [Compound 61, ethyl 4-((1-(2,6-dioxopiperidin-3-yl)-2-oxo-1,2-dihydrobenzo[cd]indol-5-yl)methyl)benzoate], the values for the DC50 on GSPT1 (setting [1]), at SALL4 and at IKZF1 were more than 10 µM, 0.1 to 1 µM and 0.1 to 1 µM, respectively. For the same compound, the Emax at GSPT1 (setting [2]) was less than 45%; on GSPT1 (setting [3]), 45 to 60%; on SALL4, less than 45%; at IKZF1 it was less than 45%. At CRBN, this compound yielded an IC50 of less than 0.1 µM.

Turning to `CCOc1ccc(Cc2ccc3c4c(cccc24)N(C2CCC(=O)NC2=O)C3=O)c(F)c1` (stereo not drawn) [Compound 60, 3-(5-(4-ethoxy-2-fluorobenzyl)-2-oxobenzo[cd]indol-1(2H)-yl)piperidine-2,6-dione], the DC50 on GSPT1 (setting [1]), on SALL4 and on IKZF1 was more than 10 µM throughout. Moreover, the Emax at GSPT1 (setting [2]) is less than 45%; on GSPT1 (setting [3]) it was 60 to 95%; on SALL4 it was 60 to 95%; at IKZF1 it was 60 to 95%. Moreover, on CRBN, the IC50 was less than 0.1 µM.

For `O=C1CCC(N2C(=O)c3ccc(CN4CC(Oc5ccccc5)C4)c4cccc2c34)C(=O)N1` (stereo not drawn) [Compound 158], the DC50 on GSPT1 (setting [1]), on GSPT1 (setting [4]), at SALL4 and on IKZF1 was less than 0.1 µM throughout. Further, the Emax at GSPT1 (setting [5]), on GSPT1 (setting [3]), at SALL4 and on IKZF1 was less than 45% throughout. The IC50 at CRBN was less than 0.1 µM.

`O=C1CCC(N2C(=O)c3ccc(CNC(=O)C(F)(F)c4ccc(Cl)cc4)c4cccc2c34)C(=O)N1` (stereo not drawn) [Compound 64, 2-(4-chlorophenyl)-N-[[1-(2,6-dioxo-3-piperidyl)-2-oxo-benzo[cd]indol-5-yl]methyl]-2,2-difluoro-acetamide]: the DC50 at GSPT1 (setting [1]) is more than 10 µM; on SALL4, less than 0.1 µM; on IKZF1, more than 10 µM. Besides, the Emax on GSPT1 (setting [2]) was less than 45%; at GSPT1 (setting [3]), 45 to 60%; on SALL4 it was less than 45%; at IKZF1 it was 45 to 60%. Further, the IC50 on CRBN is less than 0.1 µM.

Regarding `Nc1cccc2c1C(=O)N(C1CCC(=O)NC1=O)C2=O` (stereo not drawn) [pomalidomide], the “degradation of IKZF2” value at IKZF2 is reported as “not degraded”. Further, the “degradation of IKZF4” value on IKZF4 is “not degraded”.

For the compound `CC(C)OC1CCN(Cc2cc3c4c(cccc4c2)N(C2CCC(=O)NC2=O)C3=O)CC1` (stereo not drawn) [Compound 161], the DC50 on GSPT1 (setting [4]) is more than 10 µM; on GSPT1 (setting [6]), more than 10 µM; at SALL4 it was more than 10 µM; on IKZF1 it was 1 to 10 µM. Further, the Emax was 60 to 95% at GSPT1 (setting [5]), 60 to 95% on GSPT1 (setting [7]), 60 to 95% at SALL4 and less than 45% on IKZF1. On CRBN, this compound came in with an IC50 of less than 0.1 µM.

As for `O=C1CCC(N2C(=O)c3ccc(CNCc4cc(F)ccc4F)c4cccc2c34)C(=O)N1` (stereo not drawn) [Compound 155, 3-[5-[[(2,5-difluorophenyl)methylamino]methyl]-2-oxo-benzo[cd]indol-1-yl]piperidine-2,6-dione], the DC50 on GSPT1 (setting [4]) was more than 10 µM; on GSPT1 (setting [6]), more than 10 µM; at SALL4, less than 0.1 µM; at IKZF1 it was more than 10 µM. For the same compound, the Emax on GSPT1 (setting [5]) is 60 to 95%; on GSPT1 (setting [7]) it was 60 to 95%; on SALL4 it was less than 45%; at IKZF1 it was 45 to 60%. This compound also came in with an IC50 on CRBN of less than 0.1 µM.

As to `CC1(C(=O)N2CCC(n3cc(Cc4ccc5c6c(cccc46)C(=O)N5[C@H]4CCC(=O)NC4=O)cn3)CC2)CCC1` [Compound 206, (3S)-3-[6-[[1-[1-(1-methylcyclobutanecarbonyl)-4-piperidyl]pyrazol-4-yl]methyl]-2-oxo-benzo[cd]indol-1-yl]piperidine-2,6-dione], the DC50 on GSPT1 (setting [1]) is more than 10 µM; at SALL4, less than 0.1 µM; on IKZF1, less than 0.1 µM. The Emax at GSPT1 (setting [3]) is more than 95%; at SALL4 it was less than 45%; at IKZF1, less than 45%. On CRBN, this compound registered an IC50 of less than 0.1 µM.

As for `CCOc1ccc(Cc2ccc3c4c(cccc24)N(C2CCC(=O)NC2=O)C3=O)cc1` (stereo not drawn) [Compound 68, 3-[5-[(4-ethoxyphenyl)methyl]-2-oxo-benzo[cd]indol-1-yl]piperidine-2,6-dione], the DC50 at GSPT1 (setting [1]), at SALL4 and at IKZF1 was more than 10 µM each time. The Emax at GSPT1 (setting [3]), at SALL4 and on IKZF1 was 60 to 95% each time. The compound also showed an IC50 at CRBN of less than 0.1 µM.

As for `Cc1nc2cccc(N)c2c(=O)n1C1CCC(=O)NC1=O` (stereo not drawn) [CC-122], at IKZF2, the “degradation of IKZF2” value is given as “not degraded”. In addition, on IKZF4, the “degradation of IKZF4” value is reported as “not degraded”.

As for `CCOC(=O)c1cc(Cc2ccc3c4c(cccc24)N(C2CCC(=O)NC2=O)C3=O)ccc1F` (stereo not drawn) [Compound 69, ethyl 5-[[1-(2,6-dioxo-3-piperidyl)-2-oxo-benzo[cd]indol-5-yl]methyl]-2-fluoro-benzoate], the DC50 on GSPT1 (setting [1]), on SALL4 and on IKZF1 was more than 10 µM each time. Further, the Emax at GSPT1 (setting [3]), at SALL4 and at IKZF1 was 60 to 95% in each case. The IC50 at CRBN is less than 0.1 µM.

On to `O=C1CC[C@H](N2Cc3c(OCc4ccc(CN5CCOCC5)cc4)cccc3C2=O)C(=O)N1` [CC-220], for which, on IKZF2, the “degradation of IKZF2” value is given as “efficiently degraded”. Moreover, the “degradation of IKZF4” value on IKZF4 is given as “efficiently degraded”.

For the compound `O=C1CCC(N2C(=O)c3ccc(CNCCc4ccc(Cl)cc4)c4cccc2c34)C(=O)N1` (stereo not drawn) [Compound 157], the DC50 is more than 10 µM at GSPT1 (setting [4]), more than 10 µM at GSPT1 (setting [6]), less than 0.1 µM at SALL4 and 0.1 to 1 µM at IKZF1. The Emax on GSPT1 (setting [5]) was 60 to 95%; at GSPT1 (setting [7]), 60 to 95%; at SALL4, less than 45%; at IKZF1, less than 45%. Besides, at CRBN, the IC50 was less than 0.1 µM.

Consider `CCOC(=O)c1cccc(Cc2ccc3c4c(cccc24)N(C2CCC(=O)NC2=O)C3=O)c1` (stereo not drawn) [Compound 62, ethyl 3-((1-(2,6-dioxopiperidin-3-yl)-2-oxo-1,2-dihydrobenzo[cd]indol-5-yl)methyl)benzoate], for which the 50% degradation concentration (DC50) at GSPT1 (setting [1]), on SALL4 and at IKZF1 was more than 10 µM each time. In addition, the Emax was less than 45% at GSPT1 (setting [2]), 60 to 95% at GSPT1 (setting [3]), 60 to 95% at SALL4 and 60 to 95% on IKZF1. The same compound came in with an IC50 on CRBN of less than 0.1 µM.

Turning to `N#Cc1ccc(N2CCN(Cc3ccc(Cc4ccc5c6c(cccc46)C(=O)N5[C@H]4CCC(=O)NC4=O)cc3)CC2)c(F)c1` [Compound 78, (S)-4-(4-(4-((1-(2,6-dioxopiperidin-3-yl)-2-oxo-1,2-dihydrobenzo[cd]indol-6-yl)methyl)benzyl)piperazin-1-yl)-3-fluorobenzonitrile], the DC50 on GSPT1 (setting [1]) was more than 10 µM; on SALL4, less than 0.1 µM; at IKZF1, less than 0.1 µM. Besides, the Emax at GSPT1 (setting [3]) is 60 to 95%; at SALL4 it was less than 45%; at IKZF1, less than 45%. This compound yielded an IC50 on CRBN of less than 0.1 µM.
